Tested on: platelet function
Experiment: Platelet Reactivity Test (PRT) on fingerprick whole blood of volunteers before and after taking aspirin
Format: in vivo
Conditions: human volunteers after taking aspirin, single-passageway cartridge with spring, most volunteers
Method: The PRT test is used to activate platelet gel formations using a small (20 microliter) whole blood sample to help identify proper platelet function in the absence of platelet drug therapy and to identify inhibited platelet function in the presence of platelet drug therapy. The test is performed by running a small quantity of blood through a channel restriction that will induce the formation of platelet gels and trap them in a focused area similar to the way platelets are activated and focused in the body.
In use, the cartridge is secured in instrument 400 and preheated for three to five minutes at 33C. The cartridge is then removed from the instrument 400 and 40 μl of blood previously taken from a subject by a pinprick is placed in capillary tube 370, which is already bonded to the capillary tube port 200. The cartridge 150 is then placed back in the instrument 400. The instrument 400 is maintained at 33C. In a preferred embodiment, the cartridge 150 has a bar code that is read by the instrument 400. The instrument 400 will reject the cartridge 150 if the cartridge has been out of the instrument for more than two minutes after the preheating step.
[…] A gel forms and the pumps 350, 351 operate until an end point is reached. […]

CC(=O)Oc1ccccc1C(=O)O [aspirin]
PRT (platelet reactivity time): greater than 150 seconds

Source: patent US20060269978A1, “Method and device for monitoring platelet function” (priority 2005, published 2006)
